Tests used:
CCRF-CEM [1] = assay: Inhibitory concentration against CEM cell growth after incubation in liquid medium for 72 h; type: functional, cell-based; conditions: Homo sapiens
[2] = Inhibitory concentration against CEM/C2 cell growth after incubation in liquid medium for 72 h; type: functional, cell-based; conditions: Homo sapiens, CEM/C2, 72 h
CCRF-CEM [3] = assay: Ratio of IC50 against CPT-resistant cell line to that of CPT-sensitive cell line expressed as relative resistant index; type: functional, Homo sapiens

Row | Compound | IC50 (CCRF-CEM [1]) [µM] | IC50 [2] [µM] | RRI (CCRF-CEM [3])
1 | COc1cc(-c2c3c4ccccc4oc(=O)c3n3ccc4cc(O)c(OC)cc4c23)ccc1O | 2.23 | 11.1 | 5
2 | COc1ccc2oc(=O)c3c(c(-c4ccc(O)c(OC)c4)c4c5cc(OC)c(O)cc5ccn43)c2c1 | 0.52 | 6.25 | 12
3 | COc1ccc(-c2c3c4cc5c(cc4oc(=O)c3n3ccc4cc(OC)c(OC)cc4c23)OCO5)cc1OC | > 100 | > 100 | 
4 | COc1cc2c(cc1O)oc(=O)c1c2c(-c2ccc(OC)c(OC)c2)c2c3cc(OC)c(OC)cc3ccn21 | 3.03 | 5.55 | 2
5 | O=c1oc2ccccc2c2c(-c3ccc(O)c(O)c3)c3c4cc(O)c(O)cc4ccn3c12 | 0.43 | 0.95 | 2
6 | CC(=O)Oc1ccc(-c2c3c4cc(OC(C)=O)c(OC(C)=O)cc4oc(=O)c3n3ccc4cc(OC(C)=O)c(OC(C)=O)cc4c23)cc1OC(C)=O | 1.95 | 6.93 | 4
7 | COc1cc(-c2c3c4ccc(O)cc4oc(=O)c3n3ccc4cc(O)c(OC)cc4c23)ccc1O | 0.017 | 2.74 | 164
8 | CC[C@@]1(O)C(=O)OCc2c1cc1n(c2=O)Cc2cc3ccccc3nc2-1 [CAMPTOTHECIN] | 0.00084 | 5.38 | 6400
9 | COc1cc(-c2c3c4cc(OC)c(O)cc4oc(=O)c3n3ccc4cc(O)c(OC)cc4c23)ccc1O [LAMELLARIN D] | 0.005 | 0.72 | 144
